Biological target: human mGlu5a receptor (Homo sapiens (Human), UniProt P41594)
Assay: Intracellular Ca2+ mobilization assay (mGlu5 PAM)
Type: cell-based
Conditions: for EC50: HEK-293 cells stably transfected with human mGlu5a, L-glutamate added at EC20 (typically around 80 μM); for Emax: maximal response in % of the maximal stimulatory effect obtained with saturating concentrations of L-glutamate, read-out: Eff. (%)
Procedure: A monoclonal HEK-293 cell line stably transfected with a cDNA encoding for the human mGlu5a receptor was generated; for the work with mGlu5 Positive Allosteric Modulators (PAMs), a cell line with low receptor expression levels and low constitutive receptor activity was selected to allow the differentiation of agonistic versus PAM activity. Cells were cultured according to standard protocols (Freshney, 2000) in Dulbecco's Modified Eagle Medium with high glucose supplemented with 1 mM glutamine, 10% (vol/vol) heat-inactivated bovine calf serum, Penicillin/Streptomycin, […] hygromycin and 15 μg/ml blasticidin (all cell culture reagents and antibiotics from Invitrogen, Basel, Switzerland).
About 24 hrs before an experiment, 5×10^4 cells/well were seeded in poly-D-lysine coated, black/clear-bottomed 96-well plates. The cells were loaded with 2.5 μM Fluo-4AM in loading buffer (1×HBSS, 20 mM HEPES) for 1 hr at 37° C. and washed five times with loading buffer. The cells were transferred into a Functional Drug Screening System 7000 (Hamamatsu, Paris, France), and 11 half logarithmic serial dilutions of test compound at 37° C. were added and the cells were incubated for 10-30 min. with on-line recording of fluorescence. Following this pre-incubation step, the agonist L-glutamate was added to the cells at a concentration corresponding to EC20 (typically around 80 μM) with on-line recording of fluorescence; in order to account for day-to-day variations in the responsiveness of cells, the EC20 of glutamate was determined immediately ahead of each experiment by recording of a full dose-response curve of glutamate.
Responses were measured as peak increase in fluorescence minus basal (i.e. fluorescence without addition of L-glutamate), normalized to the maximal stimulatory effect obtained with saturating concentrations of L-glutamate. Graphs were plotted with the % maximal stimulatory using XLfit, a curve fitting program that iteratively plots the data using Levenburg Marquardt algorithm. The single site competition analysis equation used was y=A+((B−A)/(1+((x/C)D))), where y is the % maximal stimulatory effect, A is the minimum y, B is the maximum y, C is the EC50, x is the log 10 of the concentration of the competing compound and D is the slope of the curve (the Hill Coefficient). From these curves the EC50 (concentration at which half maximal stimulation was achieved), the Hill coefficient as well as the maximal response in % of the maximal stimulatory effect obtained with saturating concentrations of L-glutamate were calculated.
A depression of the signal observed after addition of the EC20 concentration of L-glutamate was indicative of an inhibitory activity of the test compound.

human mGlu5a receptor, sequence (P41594 other isoform, or with tags, fused parts or gaps): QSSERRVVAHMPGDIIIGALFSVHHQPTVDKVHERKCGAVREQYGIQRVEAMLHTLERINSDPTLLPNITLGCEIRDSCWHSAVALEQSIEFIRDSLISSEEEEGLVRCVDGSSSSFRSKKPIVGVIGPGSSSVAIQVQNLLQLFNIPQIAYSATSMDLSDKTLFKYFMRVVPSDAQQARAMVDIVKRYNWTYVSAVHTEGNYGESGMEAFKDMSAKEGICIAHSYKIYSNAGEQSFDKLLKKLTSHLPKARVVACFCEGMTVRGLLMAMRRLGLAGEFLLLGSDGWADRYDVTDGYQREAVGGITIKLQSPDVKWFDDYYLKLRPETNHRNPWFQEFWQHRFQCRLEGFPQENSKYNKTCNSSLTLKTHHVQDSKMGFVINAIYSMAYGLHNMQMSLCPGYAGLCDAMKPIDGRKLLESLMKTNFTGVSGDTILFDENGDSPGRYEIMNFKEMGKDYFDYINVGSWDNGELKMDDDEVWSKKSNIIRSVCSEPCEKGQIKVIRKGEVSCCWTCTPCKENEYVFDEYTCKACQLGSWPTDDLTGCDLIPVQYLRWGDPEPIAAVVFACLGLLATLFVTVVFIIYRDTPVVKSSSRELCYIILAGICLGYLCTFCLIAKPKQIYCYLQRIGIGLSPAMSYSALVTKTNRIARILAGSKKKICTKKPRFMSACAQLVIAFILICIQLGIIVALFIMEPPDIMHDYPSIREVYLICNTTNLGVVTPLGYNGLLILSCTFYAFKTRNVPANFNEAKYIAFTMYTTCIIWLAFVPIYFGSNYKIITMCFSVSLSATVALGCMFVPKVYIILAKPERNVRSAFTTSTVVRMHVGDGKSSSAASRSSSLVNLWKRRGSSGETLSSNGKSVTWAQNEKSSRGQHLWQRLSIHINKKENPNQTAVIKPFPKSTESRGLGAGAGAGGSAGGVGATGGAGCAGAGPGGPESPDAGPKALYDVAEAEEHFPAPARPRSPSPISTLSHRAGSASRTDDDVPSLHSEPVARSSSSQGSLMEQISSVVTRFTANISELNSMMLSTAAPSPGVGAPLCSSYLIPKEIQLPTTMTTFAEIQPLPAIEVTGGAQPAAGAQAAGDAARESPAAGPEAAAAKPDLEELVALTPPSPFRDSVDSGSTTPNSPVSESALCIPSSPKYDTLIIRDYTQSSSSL

CN1C(=O)C(c2ccc(C#Cc3ccccc3)cn2)CC1(C)C (racemic) [Example 1, (RS)-1,5,5-Trimethyl-3-(5-(phenylethynyl)pyridin-2-yl)pyrrolidin-2-one]
EC50: 60 nM | Emax: 111%

CN1C(=O)C(c2ccc(C#Cc3cccnc3)cn2)CC1(C)C (racemic) [Example 2, (RS)-1,5,5-Trimethyl-3-(5-(pyridin-3-ylethynyl)pyridin-2-yl)pyrrolidin-2-one]
EC50: 981 nM | Emax: 107%

CN1C(=O)C(c2ccc(C#Cc3cccc(Cl)c3)cn2)CC1(C)C (racemic) [Example 3, (RS)-3-(5-((3-chlorophenyl)ethynyl)pyridin-2-yl)-1,5,5-trimethylpyrrolidin-2-one]
EC50: 38 nM | Emax: 81%

CN1C(=O)C(c2ccc(C#Cc3cccc(F)c3)cn2)CC1(C)C (racemic) [Example 4, (RS)-3-(5-((3-Fluorophenyl)ethynyl)pyridin-2-yl)-1,5,5-trimethylpyrrolidin-2-one]
EC50: 61 nM | Emax: 103%

CN1C(=O)C(C(=O)OCc2ccccc2)(c2ncc(C#Cc3ccccc3)cn2)CC1(C)C (racemic) [Example 5, (RS)-Benzyl 1,5,5-trimethyl-2-oxo-3-(5-(phenylethynyl)pyrimidin-2-yl)pyrrolidine-3-carboxylate]
EC50: 528 nM | Emax: 48%

CN1C(=O)C(c2ncc(C#Cc3ccccc3)cn2)CC1(C)C (racemic) [Example 6, (RS)-1,5,5-Trimethyl-3-(5-(phenylethynyl)pyrimidin-2-yl)pyrrolidin-2-one]
EC50: 130 nM | Emax: 90%

CN1C(=O)C(c2ncc(C#Cc3cccc(F)c3)cn2)CC1(C)C (racemic) [Example 7, (RS)-3-(5-((3-fluorophenyl)ethynyl)pyrimidin-2-yl)-1,5,5-trimethylpyrrolidin-2-one]
EC50: 137 nM | Emax: 85%

CN1C(=O)C(c2ncc(C#Cc3ccc(F)cc3)cn2)CC1(C)C (racemic) [Example 8, (RS)-3-(5-((4-Fluorophenyl)ethynyl)pyrimidin-2-yl)-1,5,5-trimethylpyrrolidin-2-one]
EC50: 390 nM | Emax: 105%

CN1C(=O)C(c2ccc(C#Cc3cccc(F)c3)nn2)CC1(C)C (racemic) [Example 9, (RS)-3-(6-((3-Fluorophenyl)ethynyl)pyridazin-3-yl)-1,5,5-trimethylpyrrolidin-2-one]
EC50: 34 nM | Emax: 88%

CN1C(=O)C(c2ccc(C#Cc3ccccc3)nn2)CC1(C)C (racemic) [Example 11, (RS)-1,5,5-trimethyl-3-(6-(phenylethynyl)pyridazin-3-yl)pyrrolidin-2-one]
EC50: 58 nM | Emax: 115%

CN1C(=O)C(c2ccc(C#Cc3ccccc3)cn2)CCC1(C)C (racemic) [Example 12, (RS)-1,6,6-Trimethyl-3-(5-(phenylethynyl)pyridin-2-yl)piperidin-2-one]
EC50: 113 nM | Emax: 103%

CN1C(=O)C(c2ccc(C#Cc3cccc(F)c3)cn2)CCC1(C)C (racemic) [Example 13, (RS)-3-(5-((3-Fluorophenyl)ethynyl)pyridin-2-yl)-1,6,6-trimethylpiperidin-2-one]
EC50: 98 nM | Emax: 90%

CN1C(=O)C(c2ccc(C#Cc3ccc(F)cc3)cn2)CCC1(C)C (racemic) [Example 14, (RS)-3-(5-((4-Fluorophenyl)ethynyl)pyridin-2-yl)-1,6,6-trimethylpiperidin-2-one]
EC50: 212 nM | Emax: 96%

CN1C(=O)C(c2ncc(C#Cc3ccccc3)cn2)CCC1(C)C (racemic) [Example 15, (RS)-1,6,6-Trimethyl-3-(5-(phenylethynyl)pyrimidin-2-yl)piperidin-2-one]
EC50: 179 nM | Emax: 91%

CN1C(=O)C(c2ncc(C#Cc3ccc(F)cc3)cn2)CCC1(C)C (racemic) [Example 16, (RS)-3-(5-((4-Fluorophenyl)ethynyl)pyrimidin-2-yl)-1,6,6-trimethylpiperidin-2-one]
EC50: 573 nM | Emax: 96%

CN1C(=O)C(c2ncc(C#Cc3cccc(F)c3)cn2)CCC1(C)C (racemic) [Example 17, (RS)-3-(5-((3-fluorophenyl)ethynyl)pyrimidin-2-yl)-1,6,6-trimethylpiperidin-2-one]
EC50: 132 nM | Emax: 80%

CN1C(=O)C(O)(c2ccc(C#Cc3ccccc3)cn2)CC1(C)C (racemic) [Example 18, (RS)-3-Hydroxy-1,5,5-trimethyl-3-(5-(phenylethynyl)pyridin-2-yl)pyrrolidin-2-one]
EC50: 414 nM | Emax: 126%

COC1(c2ccc(C#Cc3ccccc3)cn2)CC(C)(C)N(C)C1=O (racemic) [Example 19, (RS)-3-Methoxy-1,5,5-trimethyl-3-(5-(phenylethynyl)pyridin-2-yl)pyrrolidin-2-one]
EC50: 96 nM | Emax: 108%

CN1C(=O)C(C)(c2ccc(C#Cc3ccccc3)cn2)CC1(C)C (racemic) [Example 20, (RS)-1,3,5,5-Tetramethyl-3-(5-(phenylethynyl)pyridin-2-yl)pyrrolidin-2-one]
EC50: 90 nM | Emax: 109%

CN1C(=O)C(c2ncc(C#Cc3cccc(F)c3)cc2F)CC1(C)C (racemic) [Example 21, (RS)-3-(3-fluoro-5-((3-fluorophenyl)ethynyl)pyridin-2-yl)-1,5,5-trimethylpyrrolidin-2-one]
EC50: 188 nM | Emax: 91%

CN1CCCCC(c2ccc(C#Cc3ccccc3)cn2)C1=O (racemic) [Example 22, (RS)-1-Methyl-3-(5-phenylethynyl-pyridin-2-yl)-azepan-2-one]
EC50: 59 nM | Emax: 59%

CN1CCCCC(c2ccc(C#Cc3ccc(F)cc3)cn2)C1=O (racemic) [Example 23, (RS)-3-[5-(4-Fluoro-phenylethynyl)-pyridin-2-yl]-1-methyl-azepan-2-one]
EC50: 90 nM | Emax: 61%

CN1CCCCC(c2ccc(C#Cc3cccc(F)c3)cn2)C1=O (racemic) [Example 24, (RS)-3-[5-(3-Fluoro-phenylethynyl)-pyridin-2-yl]-1-methyl-azepan-2-one]
EC50: 39 nM | Emax: 69%

CN1C(=O)[C@@H](c2ccc(C#Cc3ccccc3)cn2)[C@@H]2CCC[C@@H]21 (racemic) [Example 27, (3RS,3aSR,6aSR)-1-Methyl-3-(5-phenylethynyl-pyridin-2-yl)-hexahydro-cyclopenta[b]pyrrol-2-one]
EC50: 47 nM | Emax: 53%

CN1C(=O)[C@@H](c2ccc(C#Cc3ccc(F)cc3)cn2)[C@@H]2CCC[C@@H]21 (racemic) [Example 29, (3RS,3aSR,6aSR)-3-[5-(4-Fluoro-phenylethynyl)-pyridin-2-yl]-1-methyl-hexahydro-cyclopenta[b]pyrrol-2-one]
EC50: 78 nM | Emax: 53%

CN1C(=O)[C@@H](c2ccc(C#Cc3cccc(F)c3)cn2)[C@@H]2CCC[C@@H]21 (racemic) [Example 30, (3RS,3aSR,6aSR)-3-[5-(3-Fluoro-phenylethynyl)-pyridin-2-yl]-1-methyl-hexahydro-cyclopenta[b]pyrrol-2-one]
EC50: 33 nM | Emax: 57%

CN1C(=O)[C@@H](c2ncc(C#Cc3ccccc3)cn2)[C@@H]2CCC[C@@H]21 (racemic) [Example 33, (3RS,3aSR,6aSR)-1-Methyl-3-(5-phenylethynyl-pyrimidin-2-yl)-hexahydro-cyclopenta[b]pyrrol-2-one]
EC50: 52 nM | Emax: 52%

CN1C(=O)[C@@H](c2ccc(C#Cc3ccccc3)cn2)[C@@H]2CCCC[C@@H]21 (racemic) [Example 34, (3RS,6SR,7SR)-1-Methyl-3-(5-phenylethynyl-pyridin-2-yl)-octahydro-indol-2-one]
EC50: 185 nM | Emax: 82%

CN1C(=O)[C@H](c2ccc(C#Cc3ccccc3)cn2)[C@@H]2CCCC[C@@H]21 (racemic) [Example 35, (3SR,6SR,7SR)-1-Methyl-3-(5-phenylethynyl-pyridin-2-yl)-octahydro-indol-2-one]
EC50: 101 nM | Emax: 60%

CN1C(=O)[C@@H](c2ccc(C#Cc3cccc(F)c3)cn2)[C@@H]2CCCC[C@@H]21 (racemic) [Example 38, (3RS,6SR,7SR)-3-[5-(3-Fluoro-phenylethynyl)-pyridin-2-yl]-1-methyl-octahydro-indol-2-one]
EC50: 69 nM | Emax: 60%
